# Active and inactive are the calls of the source. The rule behind the calls is not given here.
# System: rodent lifetime carcinogenesis bioassay, tumor incidence TD50
# Experiment: chronic cancer bioassays in animals – CPDB, compiled studies (AID 1745844)
# Details: in feed, study length 104 weeks
smiles,measurement,setting,value
COc1ccccc1[N+](=O)[O-],TD50,"mouse, strain B6C3F1, females, site: all sites, lesion: malignant lymphoma, histiocytic type + malignant lymphoma, mixed type + malignant lymphoma, lymphocytic type + malignant lymph, dosed 103 weeks",153 mg/kg/day
same,TD50,"mouse, strain B6C3F1, females, site: any site (literature study), lesion: several types, types named in the paper, dosed 103 weeks",350 mg/kg/day
same,TD50,"mouse, strain B6C3F1, females, site: liver, lesion: hepatocellular adenoma + hepatoblastoma + hepatocellular carcinoma, dosed 103 weeks",194 mg/kg/day
same,TD50,"mouse, strain B6C3F1, females, site: liver, lesion: hepatocellular adenoma + hepatocellular carcinoma, dosed 103 weeks",194 mg/kg/day
same,TD50,"mouse, strain B6C3F1, females, site: liver, lesion: hepatocellular adenoma, dosed 103 weeks",179 mg/kg/day
same,TD50,"mouse, strain B6C3F1, males, site: any site (literature study), lesion: several types, types named in the paper, dosed 103 weeks",43500 mg/kg/day
same,TD50,"mouse, strain B6C3F1, males, site: liver, lesion: hepatoblastoma + hepatocellular carcinoma, dosed 103 weeks",391 mg/kg/day
same,TD50,"mouse, strain B6C3F1, males, site: liver, lesion: hepatoblastoma, dosed 103 weeks",428 mg/kg/day
same,TD50,"mouse, strain B6C3F1, males, site: liver, lesion: hepatocellular adenoma + hepatoblastoma + hepatocellular carcinoma, dosed 103 weeks",198 mg/kg/day
same,TD50,"mouse, strain B6C3F1, males, site: liver, lesion: hepatocellular adenoma + hepatocellular carcinoma, dosed 103 weeks",208 mg/kg/day
same,TD50,"mouse, strain B6C3F1, males, site: liver, lesion: hepatocellular adenoma, dosed 103 weeks",177 mg/kg/day
same,TD50,"rat, strain Fischer 344, females, site: all sites, lesion: mononuclear-cell leukemia, dosed 103 weeks",152 mg/kg/day
same,TD50,"rat, strain Fischer 344, females, site: any site (literature study), lesion: several types, types named in the paper, dosed 27 weeks",10.7 mg/kg/day
same,TD50,"rat, strain Fischer 344, females, site: any site (literature study), lesion: several types, types named in the paper, dosed 103 weeks",336 mg/kg/day
same,TD50,"rat, strain Fischer 344, females, site: colon, lesion: adenomatous polyp, dosed 27 weeks",60.9 mg/kg/day
same,TD50,"rat, strain Fischer 344, females, site: colon, lesion: carcinoma, dosed 27 weeks",1300 mg/kg/day
same,TD50,"rat, strain Fischer 344, females, site: forestomach, lesion: squamous-cell carcinoma + squamous-cell papilloma, dosed 103 weeks",1270 mg/kg/day
same,TD50,"rat, strain Fischer 344, females, site: forestomach, lesion: squamous-cell papilloma, dosed 103 weeks",3270 mg/kg/day
same,TD50,"rat, strain Fischer 344, females, site: kidney + large intestine + urinary bladder, lesion: transitional-cell carcinoma + transitional-cell papilloma + adenomatous polyp + carcinoma + sarcoma + squamous-cell carcinoma + squa, dosed 27 weeks",12.9 mg/kg/day
same,TD50,"rat, strain Fischer 344, females, site: kidney, lesion: transitional-cell carcinoma + transitional-cell papilloma, dosed 27 weeks",1240 mg/kg/day
same,TD50,"rat, strain Fischer 344, females, site: kidney, lesion: transitional-cell carcinoma, dosed 27 weeks",3550 mg/kg/day
same,TD50,"rat, strain Fischer 344, females, site: kidney, lesion: transitional-cell papilloma, dosed 27 weeks",1890 mg/kg/day
same,TD50,"rat, strain Fischer 344, females, site: large intestine, lesion: adenomatous polyp + carcinoma, dosed 27 weeks",55 mg/kg/day
same,TD50,"rat, strain Fischer 344, females, site: large intestine, lesion: adenomatous polyp, dosed 27 weeks",55 mg/kg/day
same,TD50,"rat, strain Fischer 344, females, site: large intestine, lesion: carcinoma, dosed 27 weeks",1300 mg/kg/day
same,TD50,"rat, strain Fischer 344, females, site: liver, lesion: hepatocellular adenoma + hepatoblastoma + hepatocellular carcinoma, dosed 103 weeks",1010 mg/kg/day
same,TD50,"rat, strain Fischer 344, females, site: liver, lesion: hepatocellular adenoma, dosed 103 weeks",1010 mg/kg/day
same,TD50,"rat, strain Fischer 344, females, site: lung, lesion: alveolar/bronchiolar adenoma, dosed 103 weeks",666 mg/kg/day
same,TD50,"rat, strain Fischer 344, females, site: rectum, lesion: adenomatous polyp, dosed 27 weeks",560 mg/kg/day
same,TD50,"rat, strain Fischer 344, females, site: urinary bladder, lesion: sarcoma, dosed 27 weeks",192 mg/kg/day
same,TD50,"rat, strain Fischer 344, females, site: urinary bladder, lesion: squamous-cell carcinoma + squamous-cell papilloma, dosed 27 weeks",588 mg/kg/day
same,TD50,"rat, strain Fischer 344, females, site: urinary bladder, lesion: squamous-cell carcinoma, dosed 27 weeks",2700 mg/kg/day
same,TD50,"rat, strain Fischer 344, females, site: urinary bladder, lesion: squamous-cell papilloma, dosed 27 weeks",751 mg/kg/day
same,TD50,"rat, strain Fischer 344, females, site: urinary bladder, lesion: transitional-cell carcinoma + transitional-cell papilloma, dosed 27 weeks",13 mg/kg/day
same,TD50,"rat, strain Fischer 344, females, site: urinary bladder, lesion: transitional-cell carcinoma, dosed 27 weeks",13.2 mg/kg/day
same,TD50,"rat, strain Fischer 344, females, site: urinary bladder, lesion: transitional-cell papilloma, dosed 27 weeks",543 mg/kg/day
same,TD50,"rat, strain Fischer 344, males, site: adrenal medulla, lesion: pheochromocytoma benign, bilateral + pheochromocytoma, benign, dosed 103 weeks",89.6 mg/kg/day
same,TD50,"rat, strain Fischer 344, males, site: adrenal medulla, lesion: pheochromocytoma benign, bilateral + pheochromocytoma, malignant + pheochromocytoma, benign, dosed 103 weeks",109 mg/kg/day
same,TD50,"rat, strain Fischer 344, males, site: all sites, lesion: mononuclear-cell leukemia, dosed 103 weeks",25.9 mg/kg/day
same,TD50,"rat, strain Fischer 344, males, site: any site (literature study), lesion: several types, types named in the paper, dosed 27 weeks",3.97 mg/kg/day
same,TD50,"rat, strain Fischer 344, males, site: any site (literature study), lesion: several types, types named in the paper, dosed 103 weeks",21.4 mg/kg/day
same,TD50,"rat, strain Fischer 344, males, site: cecum, lesion: adenomatous polyp, dosed 27 weeks",21.3 mg/kg/day
same,TD50,"rat, strain Fischer 344, males, site: colon, lesion: adenomatous polyp, dosed 27 weeks",17.2 mg/kg/day
same,TD50,"rat, strain Fischer 344, males, site: colon, lesion: carcinoma, dosed 27 weeks",573 mg/kg/day
same,TD50,"rat, strain Fischer 344, males, site: forestomach, lesion: squamous-cell carcinoma + squamous-cell papilloma, dosed 103 weeks",304 mg/kg/day
same,TD50,"rat, strain Fischer 344, males, site: forestomach, lesion: squamous-cell carcinoma, dosed 103 weeks",715 mg/kg/day
same,TD50,"rat, strain Fischer 344, males, site: forestomach, lesion: squamous-cell papilloma, dosed 103 weeks",543 mg/kg/day
same,TD50,"rat, strain Fischer 344, males, site: kidney + large intestine + urinary bladder, lesion: transitional-cell carcinoma + transitional-cell papilloma + adenomatous polyp + carcinoma + sarcoma + squamous-cell carcinoma + squa, dosed 27 weeks",7.47 mg/kg/day
same,TD50,"rat, strain Fischer 344, males, site: kidney, lesion: transitional-cell carcinoma + transitional-cell papilloma, dosed 27 weeks",83.6 mg/kg/day
same,TD50,"rat, strain Fischer 344, males, site: kidney, lesion: transitional-cell carcinoma, dosed 27 weeks",90.9 mg/kg/day
same,TD50,"rat, strain Fischer 344, males, site: kidney, lesion: transitional-cell papilloma, dosed 27 weeks",1040 mg/kg/day
same,TD50,"rat, strain Fischer 344, males, site: kidney, lesion: tubule adenoma + tubule carcinoma, dosed 103 weeks",251 mg/kg/day
same,TD50,"rat, strain Fischer 344, males, site: kidney, lesion: tubule adenoma, dosed 103 weeks",435 mg/kg/day
same,TD50,"rat, strain Fischer 344, males, site: kidney, lesion: tubule carcinoma, dosed 103 weeks",612 mg/kg/day
same,TD50,"rat, strain Fischer 344, males, site: large intestine, lesion: adenomatous polyp + carcinoma, dosed 27 weeks",8.54 mg/kg/day
same,TD50,"rat, strain Fischer 344, males, site: large intestine, lesion: adenomatous polyp, dosed 27 weeks",8.58 mg/kg/day
same,TD50,"rat, strain Fischer 344, males, site: large intestine, lesion: carcinoma, dosed 27 weeks",573 mg/kg/day
same,TD50,"rat, strain Fischer 344, males, site: liver, lesion: hepatocellular adenoma + hepatoblastoma + hepatocellular carcinoma, dosed 103 weeks",330 mg/kg/day
same,TD50,"rat, strain Fischer 344, males, site: preputial gland, lesion: carcinoma + carcinoma, bilateral, dosed 103 weeks",195 mg/kg/day
same,TD50,"rat, strain Fischer 344, males, site: rectum, lesion: adenomatous polyp, dosed 27 weeks",51.8 mg/kg/day
same,TD50,"rat, strain Fischer 344, males, site: testis, lesion: interstitial-cell adenoma, bilateral + interstitial-cell adenoma, dosed 103 weeks",21.3 mg/kg/day
same,TD50,"rat, strain Fischer 344, males, site: urinary bladder, lesion: sarcoma, dosed 27 weeks",292 mg/kg/day
same,TD50,"rat, strain Fischer 344, males, site: urinary bladder, lesion: squamous-cell carcinoma + squamous-cell papilloma, dosed 27 weeks",273 mg/kg/day
same,TD50,"rat, strain Fischer 344, males, site: urinary bladder, lesion: squamous-cell carcinoma, dosed 27 weeks",422 mg/kg/day
same,TD50,"rat, strain Fischer 344, males, site: urinary bladder, lesion: squamous-cell papilloma, dosed 27 weeks",482 mg/kg/day
same,TD50,"rat, strain Fischer 344, males, site: urinary bladder, lesion: transitional-cell carcinoma + transitional-cell papilloma, dosed 27 weeks",7.48 mg/kg/day
same,TD50,"rat, strain Fischer 344, males, site: urinary bladder, lesion: transitional-cell carcinoma, dosed 27 weeks",8.28 mg/kg/day
same,TD50,"rat, strain Fischer 344, males, site: urinary bladder, lesion: transitional-cell papilloma, dosed 27 weeks",75.6 mg/kg/day
CCN(CC)C(=O)Nc1ccc(OCC(O)CNC(C)(C)C)c(C(C)=O)c1 (stereo unspecified),TD50,"mouse, strain Charles River CD1, females, site: lung, lesion: several types, types named in the paper, dosed 104 weeks",8020 mg/kg/day (inactive)
same,TD50,"mouse, strain Charles River CD1, males, site: lung, lesion: several types, types named in the paper, dosed 104 weeks",4710 mg/kg/day (inactive)
same,TD50,"rat, strain Sprague-Dawley, females, site: any site (literature study), lesion: several types, types named in the paper, dosed 104 weeks",2480 mg/kg/day (inactive)
same,TD50,"rat, strain Sprague-Dawley, females, site: liver, lesion: hepatocellular adenoma, dosed 104 weeks",38100 mg/kg/day (inactive)
same,TD50,"rat, strain Sprague-Dawley, females, site: liver, lesion: hepatocellular carcinoma, dosed 104 weeks",38100 mg/kg/day (inactive)
same,TD50,"rat, strain Sprague-Dawley, males, site: any site (literature study), lesion: several types, types named in the paper, dosed 104 weeks",684 mg/kg/day (inactive)
same,TD50,"rat, strain Sprague-Dawley, males, site: liver, lesion: hepatocellular adenoma, dosed 104 weeks",12400 mg/kg/day (inactive)
same,carcinogen call,"rat, strain Sprague-Dawley, males, site: liver, lesion: hepatocellular carcinoma, dosed 104 weeks",negative (inactive)

# Source: PubChem BioAssay AID1745844 (Carcinogenic Potency Database (CPDB), 2022)
